What was measured:
A. baumannii 19606 = assay: Fluctuation assay, frequency of spontaneous resistance; type: cell-based, Acinetobacter baumannii; details: for frequency of on-target resistance mutations: A. baumannii, 4× or 8× MIC, p0 method; for F.O.R.: P0 method
[1] = In vitro metabolism in mouse hepatocytes; type: in vitro ADME
Description: The incubation of G2 and G1 with cryopreserved mouse hepatocytes was conducted according to the standard in-house protocol. Cryopreserved hepatocytes were thawed using pre-warmed InVitroGRO HT thawing medium in 50 mL centrifuge tubes. The tubes were centrifuged for 3 min at 50 × g, and the supernatants were discarded. Cells were resuspended with 50 mL of pre-warmed Dulbecco’s modified eagle medium (DMEM) by gently inverting the tube several times. The tubes were centrifuged for 3 min at 50 × g, and the supernatants were discarded. Cells were brought up in 5.0 mL of pre-warmed DMEM incubation medium. The total cell counts and the number of viable cells were determined by the trypan blue exclusion method. Incubations were carried out in 20 mL scintillation vials containing 1.0 mL of hepatocyte suspension (approximately 1.3 × 10^6 cells/mL). The mouse hepatocytes were pre-incubated with or without 1 mM ABT or 4-MP for 15 min. Vials were spiked with G2 or G1 as a DMSO stock solution to a final concentration of 5 µM G2 or G1 and a final DMSO concentration of 0.1%. The scintillation vials were placed on an orbital shaker rotating at 16 rpm in a humidified incubator at 37°C, 5% CO2. The reaction was quenched with 4 mL of acetonitrile at 0 or 3 h. The hepatocyte samples were protein precipitated with 4 volumes of acetonitrile and centrifuged at 2,000 × g for 5 min. The resulting supernatant was reduced to a dry residue and reconstituted with 350 µL water:acetonitrile (2/1; vol/vol). All samples were analyzed by LC-MS/MS system.
Liquid chromatography (LC) equipment consisted of a CBM 20A Communications Module, NexeraX2 LC 30AD pumps, NexeraX2 SIL 30AC autosampler, CTO Prominence Column Oven from Shimadzu (Columbia, MD), and a 1290 Infinity DAD ultraviolet (UV) detector with a 60 mm flow cell from Agilent Technologies (Waldbronn, Germany). The LC column was an EVO C18 (1.9 µm, 2.1 × 100 mm) from Phenomenex. Mobile phase A was water with 0.1% formic acid and mobile phase B was acetonitrile with 0.1% formic acid. The flow rate was 400 µL/min and the injection volume was 10 µL. Column temperature was 40°C. Mass spectrometry was performed using a 5600 QTRAP mass spectrometer equipped with a TurboIonSpray from Applied Biosystems (Redwood City, CA). Various tandem mass spectrometry (MS/MS) functionalities were used for analysis, which included data-dependent time-of-flight (TOF) scans in a positive ion electrospray mode. The extracted ion chromatography traces were obtained following analysis of mouse hepatocyte incubations and were used to quantify the metabolites.

C[C@H](Nc1ccc2ncc3c(c2c1)CCOC3)C(=O)Nc1ccc(Cl)nc1 [G1, (2S)-N-(6-chloro-3-pyridyl)-2-(2,4-dihydro-1H-pyrano[3,4-c]quinolin-9 ylamino)propanamide]
frequency of on-target resistance mutations (A. baumannii 19606): 6.4 × 10^−11 to 2.9 × 10^−10 | clearance in mouse hepatocytes [1]: high clearance | metabolism inhibited by ABT ([1]; 1 mM ABT): 39%

C[C@H](Nc1ccc2ncc(CO)cc2c1)C(=O)Nc1ccc(Cl)c(N(C)C)c1 [G2, (2S)-N-[4-chloro-3-(dimethylamino)phenyl]-2-[[3-(hydroxymethyl)-6-quinolyl]amino]propanamide]
frequency of on-target resistance mutations (A. baumannii 19606): 3.6 × 10^−10 to 5.1 × 10^−10 | F.O.R. (A. baumannii 19606; selection 4xMIC (G1 3.1µM; G2 6.4µM)): 3.60E-10 | F.O.R. (A. baumannii 19606; selection 8xMIC (12.8µM)): 5.10E-10 | clearance in mouse hepatocytes [1]: high clearance | metabolism inhibited by ABT and 4-MP ([1]; 1-aminobenzotriazole (ABT) and 4-methylpyrazole (4-MP)): 38%
